Results taken from ChEMBL document CHEMBL3763098, “Induction of apoptosis by cyclobutanones and derived polycyclic -lactones: a preliminary analysis of antiproliferative activity” (Medchemcomm, 2015).
Counter-ions that a name gives are not always drawn. Calls of active or inactive are those of the source. The rule behind the calls is not given here.

Tests used:
[1] = Cytotoxicity against human HCT116 cells assessed as inhibition of cell growth after 48 hrs by sulforhodamine B assay; format: functional, cell-based; conditions: HCT-116, 48 h
A549 = assay: Cytotoxicity against human A549 cells assessed as inhibition of cell growth after 48 hrs by sulforhodamine B assay; format: functional, cell-based; conditions: A549, 48 h
[2] = Cytotoxicity against human THP1 cells assessed as inhibition of cell growth after 48 hrs by sulforhodamine B assay; format: functional, cell-based; conditions: THP-1, 48 h
[3] = Cytotoxicity against human PC3 cells assessed as inhibition of cell growth after 48 hrs by sulforhodamine B assay; format: functional, cell-based; conditions: PC-3, 48 h
PC-3 [4] = assay: Induction of apoptosis in human PC3 cells assessed as cell shrinkage at IC50 incubated for 12 hrs by DAPI staining based confocal microscopy; format: functional
PC-3 [5] = assay: Induction of apoptosis in human PC3 cells assessed as cell rounding at IC50 incubated for 12 hrs by DAPI staining based confocal microscopy; format: functional
PC-3 [6] = assay: Induction of apoptosis in human PC3 cells assessed as plasma membrane blebbing at IC50 incubated for 12 hrs by DAPI staining based confocal microscopy; format: functional, cell-based
PC-3 [7] = assay: Induction of apoptosis in human PC3 cells assessed as smoothening of cell surface at IC50 incubated for 6 hrs by scanning electron microscopy; format: functional, cell-based
PC-3 [8] = assay: Induction of apoptosis in human PC3 cells assessed as plasma membrane blebbing at IC50 incubated for 6 hrs by scanning electron microscopy; format: functional, cell-based
PC-3 [9] = assay: Induction of apoptosis in human PC3 cells assessed as smoothening of cell surface at IC50 incubated for 12 hrs by scanning electron microscopy; format: functional, cell-based
PC-3 [10] = assay: Induction of apoptosis in human PC3 cells assessed as plasma membrane blebbing at IC50 incubated for 12 hrs by scanning electron microscopy; format: functional, cell-based
PC-3 [11] = assay: Induction of apoptosis in human PC3 cells assessed as decrease in cell size at IC50 incubated for 12 hrs by scanning electron microscopy; format: functional, cell-based
[12] = Cell cycle arrest in human PC3 cells assessed as accumulation at subG1 phase at 5 uM after 12 hrs by propidium iodide staining based flow cytometry (reference value: 29.6%); format: functional; conditions: PC-3
[13] = Cell cycle arrest in human PC3 cells assessed as accumulation at subG1 phase at 10 uM after 12 hrs by propidium iodide staining based flow cytometry (reference value: 29.6%); format: functional; conditions: PC-3
[14] = Cell cycle arrest in human PC3 cells assessed as accumulation at subG1 phase at 15 uM after 12 hrs by propidium iodide staining based flow cytometry (reference value: 29.6%); format: functional; conditions: PC-3
PC-3 [15] = assay: Induction of apoptosis in human PC3 cells assessed as mitochondrial membrane potential depolarization after 12 hrs using rhodamine 123 by spectrofluorimetric analysis; format: functional, cell-based
PC-3 [16] = assay: Induction of apoptosis in human PC3 cells assessed as increase in intracellular ROS level after 24 hrs using DCFH-DA by spectrofluorimetric analysis; format: functional, cell-based
[17] = Induction of apoptosis in CHO cells assessed as viable cells at 10 uM after 24 hrs by Annexin V-FITC/propidium iodide staining based flow cytometry (reference value: 91.8%); format: cell-based, Cricetulus griseus; conditions: chinese hamster, read-out: Activity
CHO [18] = assay: Induction of apoptosis in CHO cells assessed as early apoptotic cells at 10 uM after 24 hrs by Annexin V-FITC/propidium iodide staining based flow cytometry (reference value: 3%); format: cell-based, Cricetulus griseus; conditions: chinese hamster
CHO [19] = assay: Induction of apoptosis in CHO cells assessed as late apoptotic cells at 10 uM after 24 hrs by Annexin V-FITC/propidium iodide staining based flow cytometry (reference value: 1%); format: cell-based, Cricetulus griseus; conditions: chinese hamster
CHO [20] = assay: Induction of apoptosis in CHO cells assessed as necrotic cells at 10 uM after 24 hrs by Annexin V-FITC/propidium iodide staining based flow cytometry (reference value: 4.3%); format: cell-based, Cricetulus griseus; conditions: chinese hamster
[21] = Cell cycle arrest in human PC3 cells assessed as accumulation at subG1 phase at 2 uM after 12 hrs by propidium iodide staining based flow cytometry (reference value: 29.6%); format: functional; conditions: PC-3
[22] = Cell cycle arrest in human PC3 cells assessed as accumulation at subG1 phase after 12 hrs by propidium iodide staining based flow cytometry; format: functional; conditions: PC-3

`COc1cccc2c1C(=O)c1c(O)c3c(c(O)c1C2=O)C[C@@](O)(C(=O)CO)C[C@@H]3O[C@H]1C[C@H](N)[C@H](O)[C@H](C)O1` [DOXORUBICIN HYDROCHLORIDE] gave an IC50 [1] of 0.01 µM.
With `CC1(C)CCC[C@@]2(C)C1=C[C@H]1C(=O)O[C@H](c3ccccc3F)[C@H]12` the IC50 (A549) was greater than 50 µM, the IC50 [2] was greater than 50 µM and the IC50 [3] was greater than 50 µM. The IC50 [1] was greater than 50 µM.
In the case of `CC1(C)CCC[C@@]2(C)C1=C[C@H]1C(=O)O[C@H](c3ccccc3Br)[C@H]12`, the IC50 (A549) is reported as greater than 50 µM, the IC50 [2] is reported as greater than 50 µM and the IC50 [3] is reported as greater than 50 µM. For the same molecule, the IC50 [1] was greater than 50 µM.
`CC1(C)CCC[C@@]2(C)C1=C[C@H]1C(=O)[C@H](c3ccccc3Cl)[C@H]12` gave an IC50 (A549) of 25 µM, an IC50 [2] greater than 50 µM and an IC50 [3] greater than 50 µM. For the same molecule, the IC50 [1] was greater than 50 µM.
`CC1(C)CCC[C@@]2(C)C1=C[C@H]1C(=O)[C@H](c3ccccc3Br)[C@H]12` gave an IC50 (A549) of 28 µM, an IC50 [2] of 10 µM and an IC50 [3] greater than 50 µM. For the same molecule, the IC50 [1] was 19 µM.
For `COc1ccccc1[C@H]1OC(=O)[C@@H]2C=C3C(C)(C)CCC[C@]3(C)[C@H]12`, the IC50 (A549) was 18 µM, the IC50 [2] was greater than 50 µM and the IC50 [3] was 10 µM. The IC50 [1] was 15 µM, the Activity (PC-3 [4]) was “Active” and the Activity (PC-3 [5]) was “Active”. The Activity (PC-3 [6]) was “Active”, the Activity (PC-3 [7]) was “Active” and the Activity (PC-3 [8]) was “Active”. For the same molecule, the Activity (PC-3 [9]) was “Active”, the Activity (PC-3 [10]) was “Active” and the Activity (PC-3 [11]) was “Active”. The Activity [12] was 59.8%, the Activity [13] was 68.1% and the Activity [14] was 77.5%. The Activity (PC-3 [15]) was “Dose-dependent effect”, the Activity (PC-3 [16]) was “Dose-dependent effect” and the viability at 24 h, 10 µM [17] was 56.8%. It also gave an Activity (CHO [18]) of 36.2%, an Activity (CHO [19]) of 6.1% and an Activity (CHO [20]) of 0.8%.
Molecule `CC[C@@]1(O)C(=O)OCc2c1cc1n(c2=O)Cc2cc3ccccc3nc2-1` [CAMPTOTHECIN] has an Activity [21] of 60.9%, a viability at 24 h, 10 µM [17] of 74.8% and an Activity (CHO [18]) of 21.6%. For the same molecule, the Activity (CHO [19]) was 2.4% and the Activity (CHO [20]) was 1.2%.
Molecule `CC1(C)CCC[C@@]2(C)C1=C[C@H]1C(=O)[C@H](c3ccccc3F)[C@H]12` has an IC50 (A549) of 36 µM, an IC50 [2] of 18 µM and an IC50 [3] greater than 50 µM. The IC50 [1] was 17 µM.
Work on `CC1(C)CCC[C@@]2(C)C1=C[C@H]1C(=O)O[C@H](c3ccc(Cl)c(Cl)c3)[C@H]12` yielded an IC50 (A549) greater than 50 µM, an IC50 [2] greater than 50 µM and an IC50 [3] of 12 µM. For the same molecule, the IC50 [1] was 20 µM.
For `CC1(C)CCC[C@@]2(C)C1=C[C@H]1C(=O)[C@H](c3ccc(Cl)c(Cl)c3)[C@H]12`, the IC50 (A549) was greater than 50 µM, the IC50 [2] was greater than 50 µM and the IC50 [3] was greater than 50 µM. The IC50 [1] was 38 µM.
For `COc1ccccc1[C@H]1C(=O)[C@@H]2C=C3C(C)(C)CCC[C@]3(C)[C@H]12`, the IC50 (A549) was 10 µM, the IC50 [2] was 10 µM and the IC50 [3] was 8 µM. The IC50 [1] was 12 µM, the Activity (PC-3 [4]) was “Active” and the Activity (PC-3 [5]) was “Active”. The Activity (PC-3 [6]) was “Active”, the Activity (PC-3 [7]) was “Active” and the Activity (PC-3 [8]) was “Active”. The Activity (PC-3 [9]) was “Active”, the Activity (PC-3 [10]) was “Active” and the Activity (PC-3 [11]) was “Active”. It also gave an Activity [12] of 45.2%, an Activity [13] of 56.6% and an Activity [14] of 74.1%. The Activity [22] was “Dose-dependent effect”, the Activity (PC-3 [15]) was “Dose-dependent effect” and the Activity (PC-3 [16]) was “Dose-dependent effect”. It also gave a viability at 24 h, 10 µM [17] of 54.5%, an Activity (CHO [18]) of 37.6% and an Activity (CHO [19]) of 6.9%. It also gave an Activity (CHO [20]) of 1.1%.
`CC1(C)CCC[C@@]2(C)C1=C[C@H]1C(=O)O[C@H](c3ccccc3Cl)[C@H]12` gave an IC50 (A549) of 40 µM, an IC50 [2] greater than 50 µM and an IC50 [3] greater than 50 µM. The IC50 [1] was greater than 50 µM.
Work on `CO[C@@]12[C@H](COC(N)=O)C3=C(C(=O)C(C)=C(N)C3=O)N1C[C@@H]1N[C@@H]12` [MITOMYCIN] yielded an IC50 [2] of 0.5 µM and an IC50 [3] of 0.2 µM.
With `Cc1ccccc1[C@H]1C(=O)[C@@H]2C=C3C(C)(C)CCC[C@]3(C)[C@H]12` the IC50 (A549) was 28 µM, the IC50 [2] was greater than 50 µM and the IC50 [3] was greater than 50 µM. It also gave an IC50 [1] greater than 50 µM.
For `Cc1ccccc1[C@H]1OC(=O)[C@@H]2C=C3C(C)(C)CCC[C@]3(C)[C@H]12`, the IC50 (A549) was 23 µM, the IC50 [2] was greater than 50 µM and the IC50 [3] was 21 µM. For the same molecule, the IC50 [1] was greater than 50 µM.
`O=c1[nH]cc(F)c(=O)[nH]1` [FLUOROURACIL] showed an IC50 (A549) of 0.5 µM.
